According to US4978761A, “5-hydroxy-2-substituted-2,4,6,7-tetramethyl-2,3-dihydrobenzofurans” (Takeda Chemical Industries, Ltd., priority 1988, dated 1990):

Columns and labels:
5-Lipoxygenase = target: T1, 5-Lipoxygenase (Rattus norvegicus, UniProt P12527); test: 5-Lipoxygenase inhibiting action: 5-HETE production in rat basophilic leukemia (RBL-1) cells (HPLC); format: cell-based; details: read-out: Effect of Inhibiting 5-Lipoxygenase, % Inhibition (IE); for inhibition at 10 µM: 10^-5 M; for inhibition at 1 µM: 10^-6 M; for inhibition at 0.1 µM: 10^-7 M; for inhibition at 0.01 µM: 10^-8 M
T1 construct: endogenous in cells; host or cells: RBL-1 (rat basophilic leukemia) cells
T1 sequence (P12527 1-673): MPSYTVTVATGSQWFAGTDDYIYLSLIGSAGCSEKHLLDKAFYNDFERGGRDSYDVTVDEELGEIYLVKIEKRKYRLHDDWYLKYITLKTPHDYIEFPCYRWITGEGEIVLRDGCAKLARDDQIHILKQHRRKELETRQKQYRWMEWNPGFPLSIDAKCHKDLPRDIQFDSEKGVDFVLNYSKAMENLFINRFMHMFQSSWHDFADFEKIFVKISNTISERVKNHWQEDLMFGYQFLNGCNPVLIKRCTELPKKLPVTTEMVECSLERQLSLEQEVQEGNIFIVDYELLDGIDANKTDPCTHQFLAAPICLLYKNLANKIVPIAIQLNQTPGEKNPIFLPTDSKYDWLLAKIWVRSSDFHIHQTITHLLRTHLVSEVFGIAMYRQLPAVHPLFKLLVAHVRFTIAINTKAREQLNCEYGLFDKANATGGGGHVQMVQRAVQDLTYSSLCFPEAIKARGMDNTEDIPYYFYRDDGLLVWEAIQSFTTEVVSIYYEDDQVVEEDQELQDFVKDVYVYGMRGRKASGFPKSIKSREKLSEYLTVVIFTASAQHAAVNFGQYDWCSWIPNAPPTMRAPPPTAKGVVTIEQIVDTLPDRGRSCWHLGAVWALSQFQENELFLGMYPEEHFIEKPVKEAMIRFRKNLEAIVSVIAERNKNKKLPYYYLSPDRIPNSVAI
Procedure: In 0.5 ml of MCM (mast cell medium) was suspended 10^7 of rat basophilic leukemia (RBL-1) cells. To this suspension was added the test solution previously prepared [consisting of 0.5 ml of MCM, 50 μg of arachidonic acid, 10 μg of calcium ionophore A-23187 and the test compound (final concentrations 10 μm, 1 μm, 0.1 μm and 0.01 μm)], and the reaction was allowed to proceed at 37° C. for 20 minutes. To the reaction mixture was added 4 ml of ethanol, which was shaken sufficiently, followed by leaving the resultant mixture standing for 10 minutes at room temperatures. The resultant mixture was subjected to a centrifuge (2000 rpm) for 10 minutes, then the supernatant was separated. Thus-separated supernatant was concentrated to dryness under reduced pressure. To the concentrate was added 0.5 ml of a 60% aqueous methanol. A 100μl Portion of this solution was taken and subjected to high performance liquid chromatography to perform quantitative determination of 5-HETE (5-hydroxyeicosatetraenoic acid). UV absorption of 5-HETE at 237 nm was measured with a UV absorption monitor. The inhibitory effect (IE) of 5-HETE is expressed by (1-b/a)×100. In this formula, a means the height of the peak or the area of the peak in the case of presence of no compound (I), while b means the height of the peak or the area of the peak in the case of presence of the compound (I).

12-Lipoxygenase = target: T2, 12-Lipoxygenase (Rattus norvegicus, UniProt F1LQ70); test: 12-Lipoxygenase inhibitory action: 12-HETE production in Wistar rat platelets (HPLC); format: cell-based; details: read-out: 12-Lipoxygenase Inhibitory Action, % Inhibition (IE); for inhibition at 100 µM: 10^-4 M; for inhibition at 10 µM: 10^-5 M; for inhibition at 1 µM: 10^-6 M; for inhibition at 0.1 µM: 10^-7 M
T2 construct: from tissue; host or cells: Wistar rat platelets (PRP mixed with PPP, from citrated aortic blood)
T2 sequence (F1LQ70 1-663): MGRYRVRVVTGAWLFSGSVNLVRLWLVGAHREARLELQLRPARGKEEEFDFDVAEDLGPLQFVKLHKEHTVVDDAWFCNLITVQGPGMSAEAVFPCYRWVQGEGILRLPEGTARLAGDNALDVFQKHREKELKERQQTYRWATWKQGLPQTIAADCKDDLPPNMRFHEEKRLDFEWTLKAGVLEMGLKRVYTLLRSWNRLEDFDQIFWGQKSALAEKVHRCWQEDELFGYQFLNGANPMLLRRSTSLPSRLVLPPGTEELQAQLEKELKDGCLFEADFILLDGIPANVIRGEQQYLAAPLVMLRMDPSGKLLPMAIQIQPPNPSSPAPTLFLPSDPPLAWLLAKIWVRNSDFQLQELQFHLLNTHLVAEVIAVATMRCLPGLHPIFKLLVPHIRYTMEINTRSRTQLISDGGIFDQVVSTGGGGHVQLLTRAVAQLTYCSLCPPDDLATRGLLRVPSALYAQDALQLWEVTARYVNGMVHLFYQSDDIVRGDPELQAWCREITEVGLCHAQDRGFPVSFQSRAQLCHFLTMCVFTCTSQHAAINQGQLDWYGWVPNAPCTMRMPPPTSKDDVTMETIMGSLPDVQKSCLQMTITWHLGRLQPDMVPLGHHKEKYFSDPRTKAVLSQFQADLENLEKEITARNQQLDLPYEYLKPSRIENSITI
Procedure: Through the descending aorta of a Wistar rat, 10 ml of blood was collected, under anesthesia, together with citric acid of a volume corresponding to 10%. PRP and PPP were respectively prepared, then they were mixed to make the number of platelets to be 10^9 /ml. To 2.5 μl each of the test solutions prepared in advance (final concentrations of the test compounds : 100 μm, 10 μm, 1 μm and 0.1 μm) was added 0.225 ml of the platelet solution. The respective solutions were kept at 37° C. for 5 minutes, to which was added 25 μl each of arachidonic acid solution (50 μg/ml) , then the respective mixtures were shaken immediately. The reaction was allowed to proceed at 37° C. for 15 minutes, and there was added ethanol (1 ml) to stop the reaction. The reaction mixture was subjected to a centrifuge (2000 rpm) for 5 minutes. One ml of the supernatant was taken, which was mixed with 1 ml of water. 100 μl of this mixture solution was subjected to high performance liquid chromatography to quantitatively determine 12-HETE. The detection was conducted at 240 nm. The calculation of the inhibition rate was conducted in a manner as in the case of 5-HETE.

Structure (SMILES) | inhibition at 10 µM (5-Lipoxygenase) [%] | inhibition at 1 µM (5-Lipoxygenase) [%] | inhibition at 0.1 µM (5-Lipoxygenase) [%] | inhibition at 0.01 µM (5-Lipoxygenase) [%] | inhibition at 100 µM (12-Lipoxygenase) [%] | inhibition at 10 µM (12-Lipoxygenase) [%] | inhibition at 1 µM (12-Lipoxygenase) [%] | inhibition at 0.1 µM (12-Lipoxygenase) [%]
Cc1c(C)c2c(c(C)c1O)CC(C)(CC#N)O2 (stereo not drawn) [Compound 5, 5-hydroxy-2-cyanomethyl-2,4,6,7-tetramethyl-2,3-dihydrobenzofuran] | 100 | 100 | 57 | 0 | 97 | 78 | 14 | 
Cc1c(C)c2c(c(C)c1O)CC(C)(CBr)O2 (stereo not drawn) [Compound 6] | 100 | 100 | 52 | 4 | 98 | 88 | 16 | 2
Cc1c(C)c2c(c(C)c1O)CC(C)(CCc1ccccc1)O2 (stereo not drawn) [Compound 12] | 100 | 100 | 90 | 46 | 95 | 82 | 11 | 
Cc1c(C)c2c(c(C)c1O)CC(C)(CCCc1ccccc1)O2 (stereo not drawn) [Compound 20] |  |  |  |  | 100 | 99 | 97 | 9
Cc1c(C)c2c(c(C)c1O)CC(C)(CCCCc1ccccc1)O2 (stereo not drawn) [Compound 23] |  |  |  |  | 100 | 100 | 92 | 19
Cc1c(C)c2c(c(C)c1O)CC(C)(CCc1ccc(F)cc1)O2 (stereo not drawn) [Compound 32] |  |  |  |  | 99 | 99 | 45 | 2
CCCCCC1(C)Cc2c(C)c(O)c(C)c(C)c2O1 (stereo not drawn) [Compound 37] |  |  |  |  | 100 | 100 | 31 | 2
CCCCCCC/C=C\C1(C)Cc2c(C)c(O)c(C)c(C)c2O1 (stereo not drawn) [Compound 38] |  |  |  |  | 99 | 99 | 90 | 3
CCCCCCCCCC1(C)Cc2c(C)c(O)c(C)c(C)c2O1 (stereo not drawn) [Compound 39] |  |  |  |  | 100 | 100 | 32 | 
CCCCCCCCCCC/C=C\C1(C)Cc2c(C)c(O)c(C)c(C)c2O1 (stereo not drawn) [Compound 40] |  |  |  |  | 99 | 96 | 48 | 6
CCCCCCCCCCCCCC1(C)Cc2c(C)c(O)c(C)c(C)c2O1 (stereo not drawn) [Compound 41] |  |  |  |  | 99 | 74 | 20 | 9

More lines, now with the values ahead:

inhibition at 10 µM (5-Lipoxygenase) [%] | inhibition at 1 µM (5-Lipoxygenase) [%] | inhibition at 0.1 µM (5-Lipoxygenase) [%] | inhibition at 0.01 µM (5-Lipoxygenase) [%] | inhibition at 100 µM (12-Lipoxygenase) [%] | inhibition at 10 µM (12-Lipoxygenase) [%] | inhibition at 1 µM (12-Lipoxygenase) [%] | inhibition at 0.1 µM (12-Lipoxygenase) [%] | Structure (SMILES)
100 | 99 | 98 | 12 | 96 | 92 | 52 | 45 | Cc1c(C)c2c(c(C)c1O)CC(C)(C=Cc1ccccc1)O2 (stereo not drawn) [Compound 10]
 |  |  |  | 100 | 100 | 99 | 25 | Cc1c(C)c2c(c(C)c1O)CC(C)(/C=C\Cc1ccccc1)O2 (stereo not drawn) [Compound 15]
 |  |  |  | 100 | 99 | 98 | 22 | Cc1c(C)c2c(c(C)c1O)CC(C)(/C=C/Cc1ccccc1)O2 (stereo not drawn) [Compound 17]
 |  |  |  | 100 | 100 | 89 | 18 | Cc1c(C)c2c(c(C)c1O)CC(C)(/C=C/c1ccccc1)O2 (stereo not drawn) [Compound 18]
 |  |  |  | 100 | 100 | 98 | 21 | Cc1c(C)c2c(c(C)c1O)CC(C)(/C=C\CCc1ccccc1)O2 (stereo not drawn) [Compound 21]
 |  |  |  | 100 | 99 | 98 | 13 | COc1ccc(/C=C\C2(C)Cc3c(C)c(O)c(C)c(C)c3O2)cc1 (stereo not drawn) [Compound 24]
 |  |  |  | 100 | 99 | 28 |  | COc1ccc(CCC2(C)Cc3c(C)c(O)c(C)c(C)c3O2)cc1 (stereo not drawn) [Compound 26]
 |  |  |  | 100 | 100 | 99 | 19 | COc1cccc(/C=C\C2(C)Cc3c(C)c(O)c(C)c(C)c3O2)c1 (stereo not drawn) [Compound 27]
 |  |  |  | 100 | 99 | 58 | 7 | COc1cccc(CCC2(C)Cc3c(C)c(O)c(C)c(C)c3O2)c1 (stereo not drawn) [Compound 29]
 |  |  |  | 100 | 100 | 98 | 21 | Cc1c(C)c2c(c(C)c1O)CC(C)(/C=C\c1ccc(F)cc1)O2 (stereo not drawn) [Compound 30]
 |  |  |  | 100 | 100 | 28 | 2 | Cc1ccc(/C=C\C2(C)Cc3c(C)c(O)c(C)c(C)c3O2)cc1 (stereo not drawn) [Compound 33]
 |  |  |  | 99 | 99 | 49 | 8 | Cc1ccc(CCC2(C)Cc3c(C)c(O)c(C)c(C)c3O2)cc1 (stereo not drawn) [Compound 35]
 |  |  |  | 100 | 100 | 100 | 97 | CCC/C=C\C1(C)Cc2c(C)c(O)c(C)c(C)c2O1 (stereo not drawn) [Compound 36]
